Experimental data taken from patent US11274131B2, “IgM-mediated receptor clustering and cell modulation” (MAYO FOUNDATION FOR MEDICAL EDUCATION AND RESEARCH, priority 2007, dated 2022).

Test system: matured human monocyte-derived DC
Assay: Antigen uptake assay, matured human DC
Assay type: cell-based
Settings: inhibitor pretreatment before B7-DC XAb
Experimental: FIGS. 2A to 2G are a series of pictures showing that a kinase activated pathway regulates antibody-induced antigen uptake by matured DC. Matured human monocyte-derived DC were treated with the MTAb B7-DC XAb for varying time periods and evaluated for the phosphorylation status of select signaling pathway intermediates by immunoprecipitation with DAP12 (MC457), Syk (4D10), and PLCγ1 (MC490) reactive antibodies followed by western blot analysis using the phosphotyrosine reactive antibody 4G10 as a probe (FIGS. 2A-2C). Samples of the cells blocked with indicated concentration of piceatannol (FIG. 2D) or with […] of piceatannol (FIG. 2E) were analyzed for phosphorylation of Syk (FIG. 2D) and PLCγ1 (FIG. 2E). To investigate the functional importance of these signaling intermediates in the regulation of antigen uptake by matured DC activated with B7-DC XAb, varying concentrations of pharmacologic inhibitors were used to block the activity of p72Syk (piceatannol) and PLCγ1 (U73122) (FIGS. 2F and 2G, respectively). Antigen uptake was assessed by pulsing cultures with FITC-conjugated ovalbumin and measuring intracellular fluorescence 16 hours later in CD11c positive cells by flow cytometry.
Human DC were generated from peripheral blood CD14^+ monocytes by incubation in GM-CSF and IL-4 for five days. […] All cultures were pulsed with OVA-FITC at the time of treatment with IgM antibodies, and […] OVA-FITC was assessed 24 hours later by flow cytometry.
FIGS. 4A and 4B are a series of plots showing the effects of kinase inhibitors on OVA-FITC uptake by matured human DC, as determined by flow cytometry. […] All cells were pulsed with OVA-FITC at the time of treatment with IgM antibody, and CD11c+ cells were analyzed for OVA-FITC uptake 24 hours later by flow cytometry. […]
Antigen uptake experiments were carried out as described previously (Radhakrishnan et al. (2005) Proc. Natl. Acad. Sci. U.S.A. 102:11438-11443). […] The matured cells were incubated with ovalbumin labeled with FITC or APC and control antibody or B7-DC XAb for two hours, washed and analyzed by FACSCALIBUR™ (Becton Dickinson). […]

| Structure (SMILES) | inhibition of B7-DC XAb-induced antigen uptake by matured DC |
| --- | --- |
| CC(C)(C)n1nc(-c2ccc(Cl)cc2)c2c(N)ncnc21 [PP2] | inhibition of antigen uptake |
| COc1ccc2c(c1)CC[C@@H]1[C@@H]2CC[C@]2(C)[C@@H](NCCCCCCN3C(=O)C=CC3=O)CC[C@@H]12 [U73122] | inhibited uptake of tagged proteins by matured DC in a dose responsive manner |
